This passage reports remaining activity and inhibition results from PMC8500670, “A selective WDR5 degrader inhibits acute myeloid leukemia in patient-derived mouse models” (Science translational medicine, 2021).

Common to all, as to test: biochemical
Experiment [1] has as its target MAP4K4(h) (Homo sapiens, UniProt O95819). Details: kinase selectivity panel, activity as per cent of control, single concentration in duplicate. The settings on record: read-out: % of control remaining. The method, then: (§1) We next assessed selectivity of MS67 against 22 protein methyltransferases (table S2) and a broad panel of common drug targets including 45 kinases (table S3) and 44 G protein–coupled receptors (GPCR), ion channels, and transporters (table S4). […] We subsequently determined that MS67 had moderate binding affinity (Ki = 1.0 ± 0.8 μM) to Sigma 2 receptor (fig. S10).

The target in experiment [2] is EZH2 Complex (Homo sapiens, UniProt Q15910). Details: complex; protein methyltransferase inhibition panel, single concentration, duplicate. The method, then:
as §1

Experiment [3] addresses PRMT5/MEP50 Complex (Homo sapiens, UniProt O14744). Details: complex; protein methyltransferase inhibition panel, single concentration, duplicate. The method, then:
as §1

Experiment [4] has as its target EZH1 Complex (Homo sapiens, UniProt Q92800). Also on record: complex; protein methyltransferase inhibition panel, single concentration, duplicate. On the procedure: as §1
Experiment [5] has as its target T1, GLP (Homo sapiens, UniProt Q9H9B1).
T1 construct: gene EHMT1
T1 sequence (Q9H9B1 1-1298): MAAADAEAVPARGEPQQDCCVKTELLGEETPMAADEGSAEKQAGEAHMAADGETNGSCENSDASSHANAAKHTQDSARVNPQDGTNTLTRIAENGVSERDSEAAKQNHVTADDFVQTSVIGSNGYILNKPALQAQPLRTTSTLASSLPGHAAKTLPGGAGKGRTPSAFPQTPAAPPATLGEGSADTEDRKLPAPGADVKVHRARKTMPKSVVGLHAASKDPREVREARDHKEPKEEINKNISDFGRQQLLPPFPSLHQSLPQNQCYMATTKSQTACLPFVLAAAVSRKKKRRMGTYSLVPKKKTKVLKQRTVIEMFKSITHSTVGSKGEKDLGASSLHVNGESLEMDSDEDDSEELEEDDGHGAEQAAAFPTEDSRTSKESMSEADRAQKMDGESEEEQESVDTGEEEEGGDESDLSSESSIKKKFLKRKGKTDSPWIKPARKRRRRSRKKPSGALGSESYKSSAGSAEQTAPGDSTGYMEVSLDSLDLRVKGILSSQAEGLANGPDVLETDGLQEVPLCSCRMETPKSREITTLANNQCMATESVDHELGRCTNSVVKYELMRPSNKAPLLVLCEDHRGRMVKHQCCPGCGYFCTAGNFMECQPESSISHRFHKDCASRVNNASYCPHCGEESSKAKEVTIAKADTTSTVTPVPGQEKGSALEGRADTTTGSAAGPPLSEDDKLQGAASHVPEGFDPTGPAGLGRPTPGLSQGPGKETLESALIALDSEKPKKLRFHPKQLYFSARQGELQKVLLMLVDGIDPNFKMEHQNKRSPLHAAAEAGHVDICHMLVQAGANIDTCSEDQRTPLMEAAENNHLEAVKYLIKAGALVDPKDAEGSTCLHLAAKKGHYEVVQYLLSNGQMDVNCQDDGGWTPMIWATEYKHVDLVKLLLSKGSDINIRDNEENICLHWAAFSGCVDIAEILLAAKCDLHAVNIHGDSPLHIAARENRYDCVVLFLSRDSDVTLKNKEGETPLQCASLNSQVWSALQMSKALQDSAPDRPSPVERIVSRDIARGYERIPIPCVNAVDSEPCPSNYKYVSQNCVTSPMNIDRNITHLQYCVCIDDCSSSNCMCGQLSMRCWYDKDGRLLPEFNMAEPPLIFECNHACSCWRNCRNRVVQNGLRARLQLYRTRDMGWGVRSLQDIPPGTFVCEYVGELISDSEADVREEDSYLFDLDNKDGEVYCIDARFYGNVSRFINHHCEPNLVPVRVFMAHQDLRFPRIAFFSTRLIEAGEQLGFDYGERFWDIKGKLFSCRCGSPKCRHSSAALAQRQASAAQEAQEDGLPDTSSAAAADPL
Also on record: protein methyltransferase inhibition panel, single concentration, duplicate. On the procedure:
as §1

In experiment [6] the target is NSD1 (Homo sapiens, UniProt Q96L73). Also on record: protein methyltransferase inhibition panel, single concentration, duplicate. The method, then:
as §1

Experiment [7] concerns the target T2, SET7/9 (Homo sapiens, UniProt Q8WTS6).
T2 construct: gene SETD7
T2 sequence (Q8WTS6 1-366): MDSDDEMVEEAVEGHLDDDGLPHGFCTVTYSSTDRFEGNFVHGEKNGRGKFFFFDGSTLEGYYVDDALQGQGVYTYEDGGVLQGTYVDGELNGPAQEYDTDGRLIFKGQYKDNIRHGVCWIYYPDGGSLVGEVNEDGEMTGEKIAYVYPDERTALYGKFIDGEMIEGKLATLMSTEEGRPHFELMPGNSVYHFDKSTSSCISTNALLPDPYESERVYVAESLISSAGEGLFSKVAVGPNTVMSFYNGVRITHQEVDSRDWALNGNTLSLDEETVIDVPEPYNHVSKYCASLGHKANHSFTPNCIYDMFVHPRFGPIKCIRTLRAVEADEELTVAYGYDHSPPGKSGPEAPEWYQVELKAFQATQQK
Also on record: protein methyltransferase inhibition panel, single concentration, duplicate. The method, then:
as §1

Experiment [8] concerns the target T3, PRMT4 (Homo sapiens, UniProt Q86X55).
T3 construct: gene CARM1
T3 sequence (Q86X55 1-608): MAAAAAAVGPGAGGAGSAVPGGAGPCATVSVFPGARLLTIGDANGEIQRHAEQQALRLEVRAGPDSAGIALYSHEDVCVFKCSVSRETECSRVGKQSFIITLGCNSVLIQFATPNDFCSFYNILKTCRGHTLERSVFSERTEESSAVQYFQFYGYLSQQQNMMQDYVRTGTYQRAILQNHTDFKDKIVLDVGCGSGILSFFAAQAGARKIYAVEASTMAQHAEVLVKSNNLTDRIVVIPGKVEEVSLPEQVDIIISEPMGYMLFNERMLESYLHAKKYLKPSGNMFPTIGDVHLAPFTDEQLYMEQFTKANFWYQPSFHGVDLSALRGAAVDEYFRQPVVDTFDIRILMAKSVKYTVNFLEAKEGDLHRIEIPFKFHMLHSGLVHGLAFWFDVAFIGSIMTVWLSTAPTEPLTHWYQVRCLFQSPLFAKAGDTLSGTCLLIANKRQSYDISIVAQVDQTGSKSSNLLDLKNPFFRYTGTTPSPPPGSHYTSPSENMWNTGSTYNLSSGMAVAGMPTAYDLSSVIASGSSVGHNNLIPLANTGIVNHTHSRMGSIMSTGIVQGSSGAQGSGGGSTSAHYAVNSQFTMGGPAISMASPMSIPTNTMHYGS
Details: protein methyltransferase inhibition panel, single concentration, duplicate. The method, then: as §1

Where only a bound is given, the exact number is not on record here.

Sequence of EZH2 Complex (Q15910 whole entry): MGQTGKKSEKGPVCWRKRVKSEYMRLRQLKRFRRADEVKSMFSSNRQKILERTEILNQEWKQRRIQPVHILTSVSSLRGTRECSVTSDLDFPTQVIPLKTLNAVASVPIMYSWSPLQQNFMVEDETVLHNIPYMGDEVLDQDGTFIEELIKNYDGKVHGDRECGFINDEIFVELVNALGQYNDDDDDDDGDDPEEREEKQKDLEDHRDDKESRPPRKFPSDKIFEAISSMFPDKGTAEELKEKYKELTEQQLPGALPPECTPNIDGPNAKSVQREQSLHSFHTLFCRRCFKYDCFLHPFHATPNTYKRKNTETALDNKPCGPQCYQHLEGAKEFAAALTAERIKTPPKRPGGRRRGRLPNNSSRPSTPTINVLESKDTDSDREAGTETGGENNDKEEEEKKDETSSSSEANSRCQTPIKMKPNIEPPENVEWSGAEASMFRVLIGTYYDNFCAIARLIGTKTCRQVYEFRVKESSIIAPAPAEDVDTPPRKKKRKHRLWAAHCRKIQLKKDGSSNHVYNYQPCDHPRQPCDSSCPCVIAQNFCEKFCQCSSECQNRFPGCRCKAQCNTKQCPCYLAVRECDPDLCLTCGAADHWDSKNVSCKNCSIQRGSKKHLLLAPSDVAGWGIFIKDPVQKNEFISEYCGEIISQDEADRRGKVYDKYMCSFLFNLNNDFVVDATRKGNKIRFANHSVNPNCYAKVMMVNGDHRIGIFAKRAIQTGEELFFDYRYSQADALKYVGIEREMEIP
Sequence of EZH2 Complex (O75530 whole entry partner): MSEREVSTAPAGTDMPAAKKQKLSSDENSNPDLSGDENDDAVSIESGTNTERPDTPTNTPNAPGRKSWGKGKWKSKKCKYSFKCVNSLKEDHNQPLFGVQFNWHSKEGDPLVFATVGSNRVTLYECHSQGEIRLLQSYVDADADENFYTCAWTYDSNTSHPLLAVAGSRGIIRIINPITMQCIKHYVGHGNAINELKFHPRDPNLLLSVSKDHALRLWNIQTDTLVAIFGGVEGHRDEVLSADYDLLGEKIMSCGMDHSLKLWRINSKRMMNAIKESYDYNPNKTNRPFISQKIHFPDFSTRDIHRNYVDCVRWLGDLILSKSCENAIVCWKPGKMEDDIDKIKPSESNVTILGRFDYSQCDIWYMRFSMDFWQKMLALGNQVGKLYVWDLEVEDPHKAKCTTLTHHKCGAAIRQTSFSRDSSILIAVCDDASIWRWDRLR
Sequence of EZH2 Complex (Q09028 whole entry partner): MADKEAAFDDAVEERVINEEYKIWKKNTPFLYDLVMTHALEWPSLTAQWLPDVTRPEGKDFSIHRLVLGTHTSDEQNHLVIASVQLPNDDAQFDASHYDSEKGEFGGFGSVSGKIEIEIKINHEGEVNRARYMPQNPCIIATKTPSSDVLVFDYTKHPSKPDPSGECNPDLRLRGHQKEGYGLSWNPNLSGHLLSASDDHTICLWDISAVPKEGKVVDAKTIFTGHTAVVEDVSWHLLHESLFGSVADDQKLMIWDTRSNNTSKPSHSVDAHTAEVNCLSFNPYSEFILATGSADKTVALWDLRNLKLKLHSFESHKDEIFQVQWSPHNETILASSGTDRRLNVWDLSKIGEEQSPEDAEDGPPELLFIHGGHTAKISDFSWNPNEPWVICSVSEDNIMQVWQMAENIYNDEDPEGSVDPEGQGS
Sequence of EZH2 Complex (Q15022 whole entry partner): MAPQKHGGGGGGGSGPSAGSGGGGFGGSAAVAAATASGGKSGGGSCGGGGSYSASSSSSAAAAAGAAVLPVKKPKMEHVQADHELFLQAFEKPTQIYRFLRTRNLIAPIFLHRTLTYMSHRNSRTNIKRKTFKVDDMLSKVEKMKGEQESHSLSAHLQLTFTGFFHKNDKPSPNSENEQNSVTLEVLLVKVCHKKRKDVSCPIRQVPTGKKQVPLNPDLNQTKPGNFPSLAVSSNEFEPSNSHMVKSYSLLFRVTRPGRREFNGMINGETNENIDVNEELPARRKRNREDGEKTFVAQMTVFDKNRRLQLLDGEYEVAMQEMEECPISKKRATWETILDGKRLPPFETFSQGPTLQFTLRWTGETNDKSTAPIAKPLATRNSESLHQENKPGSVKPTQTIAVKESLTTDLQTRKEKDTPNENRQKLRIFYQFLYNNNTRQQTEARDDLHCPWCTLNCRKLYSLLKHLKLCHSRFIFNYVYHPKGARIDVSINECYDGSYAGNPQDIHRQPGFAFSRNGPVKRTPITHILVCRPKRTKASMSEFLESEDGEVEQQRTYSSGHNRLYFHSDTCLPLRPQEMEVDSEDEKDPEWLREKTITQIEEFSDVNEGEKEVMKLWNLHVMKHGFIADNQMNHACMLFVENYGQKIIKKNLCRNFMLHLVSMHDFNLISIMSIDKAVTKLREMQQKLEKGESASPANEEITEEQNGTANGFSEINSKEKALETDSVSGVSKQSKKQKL
Sequence of EZH2 Complex (Q6ZN18 whole entry partner): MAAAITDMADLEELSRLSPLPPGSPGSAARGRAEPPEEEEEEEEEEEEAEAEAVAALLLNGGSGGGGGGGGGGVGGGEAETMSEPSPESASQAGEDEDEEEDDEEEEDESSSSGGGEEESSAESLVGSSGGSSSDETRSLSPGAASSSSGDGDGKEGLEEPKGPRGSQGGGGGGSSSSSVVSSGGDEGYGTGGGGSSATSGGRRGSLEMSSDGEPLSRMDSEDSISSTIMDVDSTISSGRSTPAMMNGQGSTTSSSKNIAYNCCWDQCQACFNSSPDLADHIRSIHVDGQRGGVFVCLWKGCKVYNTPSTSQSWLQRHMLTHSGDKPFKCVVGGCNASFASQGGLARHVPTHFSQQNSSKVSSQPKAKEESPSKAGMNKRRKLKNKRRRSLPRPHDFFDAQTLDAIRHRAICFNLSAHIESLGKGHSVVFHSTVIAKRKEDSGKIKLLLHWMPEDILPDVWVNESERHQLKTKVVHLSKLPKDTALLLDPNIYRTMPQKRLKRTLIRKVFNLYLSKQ
Sequence of EZH1 Complex (Q92800 whole entry): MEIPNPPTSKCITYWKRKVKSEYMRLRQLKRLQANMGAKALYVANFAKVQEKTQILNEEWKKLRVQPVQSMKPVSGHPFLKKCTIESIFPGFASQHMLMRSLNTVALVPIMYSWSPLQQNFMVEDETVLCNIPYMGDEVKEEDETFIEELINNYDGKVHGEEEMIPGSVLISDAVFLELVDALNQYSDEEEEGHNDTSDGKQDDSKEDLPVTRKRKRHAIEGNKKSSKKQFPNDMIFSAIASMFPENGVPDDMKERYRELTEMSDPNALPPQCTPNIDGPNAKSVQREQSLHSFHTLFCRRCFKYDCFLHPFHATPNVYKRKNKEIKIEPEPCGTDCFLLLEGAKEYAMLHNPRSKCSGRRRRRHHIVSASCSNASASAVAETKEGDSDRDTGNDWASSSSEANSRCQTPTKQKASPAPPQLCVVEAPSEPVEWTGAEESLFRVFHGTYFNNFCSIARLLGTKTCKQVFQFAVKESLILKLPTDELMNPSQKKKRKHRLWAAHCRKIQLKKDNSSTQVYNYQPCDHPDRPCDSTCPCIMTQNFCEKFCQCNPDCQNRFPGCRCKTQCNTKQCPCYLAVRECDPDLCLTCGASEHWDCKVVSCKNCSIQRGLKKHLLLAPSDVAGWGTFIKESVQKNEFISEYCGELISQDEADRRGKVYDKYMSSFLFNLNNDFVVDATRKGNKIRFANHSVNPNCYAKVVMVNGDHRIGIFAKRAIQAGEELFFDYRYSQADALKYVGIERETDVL
Sequence of EZH1 Complex (O75530 whole entry partner): as the sequence (O75530 whole entry partner) above
Sequence of EZH1 Complex (Q09028 whole entry partner): as the sequence (Q09028 whole entry partner) above
Sequence of EZH1 Complex (Q15022 whole entry partner): as the sequence (Q15022 whole entry partner) above
Sequence of EZH1 Complex (Q6ZN18 whole entry partner): as the sequence (Q6ZN18 whole entry partner) above
Sequence of PRMT5/MEP50 Complex (O14744 whole entry): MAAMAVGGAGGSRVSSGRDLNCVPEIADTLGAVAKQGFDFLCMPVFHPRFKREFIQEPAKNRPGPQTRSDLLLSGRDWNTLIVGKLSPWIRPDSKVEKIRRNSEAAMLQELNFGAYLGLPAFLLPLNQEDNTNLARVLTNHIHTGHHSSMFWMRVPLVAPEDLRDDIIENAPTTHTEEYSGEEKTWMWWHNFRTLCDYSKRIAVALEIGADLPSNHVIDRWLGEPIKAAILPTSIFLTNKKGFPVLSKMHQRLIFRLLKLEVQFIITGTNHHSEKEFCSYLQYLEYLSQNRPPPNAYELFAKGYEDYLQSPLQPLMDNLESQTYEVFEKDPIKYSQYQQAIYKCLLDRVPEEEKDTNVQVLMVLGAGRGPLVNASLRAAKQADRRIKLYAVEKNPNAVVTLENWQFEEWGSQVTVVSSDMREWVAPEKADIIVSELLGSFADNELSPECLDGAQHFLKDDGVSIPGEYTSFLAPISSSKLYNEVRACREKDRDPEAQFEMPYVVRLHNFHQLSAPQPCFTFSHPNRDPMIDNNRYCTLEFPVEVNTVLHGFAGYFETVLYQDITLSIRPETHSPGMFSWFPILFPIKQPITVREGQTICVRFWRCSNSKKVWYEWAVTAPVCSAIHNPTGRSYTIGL
Sequence of PRMT5/MEP50 Complex (Q9BQA1 whole entry partner): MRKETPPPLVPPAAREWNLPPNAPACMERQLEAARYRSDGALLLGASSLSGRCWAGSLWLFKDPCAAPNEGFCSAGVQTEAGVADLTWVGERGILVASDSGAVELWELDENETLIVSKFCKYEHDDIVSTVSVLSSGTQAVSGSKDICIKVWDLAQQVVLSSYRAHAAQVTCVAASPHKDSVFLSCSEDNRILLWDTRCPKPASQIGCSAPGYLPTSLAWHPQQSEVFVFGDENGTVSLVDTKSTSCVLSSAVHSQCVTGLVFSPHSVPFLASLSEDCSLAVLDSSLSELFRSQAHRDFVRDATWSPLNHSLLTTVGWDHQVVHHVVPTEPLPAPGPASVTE

With `Cc1ncsc1-c1ccc([C@H](C)NC(=O)[C@@H]2C[C@@H](O)CN2C(=O)[C@@H](NC(=O)CNC(=O)c2ccc(F)c(-c3ccc(N4C[C@@H](C)N(C)[C@@H](C)C4)c(NC(=O)c4c[nH]c(=O)cc4C(F)(F)F)c3)c2)C(C)(C)C)cc1` [MS67], the remaining activity at 1 µM in experiment [1] worked out at 100%. In addition, the inhibition at 10 µM in experiment [2], in experiment [3], in experiment [4], in experiment [5], in experiment [6] and in experiment [7] was less than 10% in each case. In experiment [8], this molecule gave an inhibition at 10 µM of less than 10%.

The term inhibition denotes the change of the read-out against control, counted positive when it falls. The low end stands for a response near the control, the high end for a response far below the control.
